# What was measured:
# [1] = biological target: T1, human TGR5 (h-TGR5) (Homo sapiens, UniProt Q8TDU6); test: TGR5/CRE-Luciferiase Assay (HEK 293 hTGR5/CRE-Luc cells); format: cell-based; conditions: h-TGR5 CRE-Luc EC50, Table 1; read-out: CRE-Luc (EC50)
# T1 construct: expressed in transfected cells
# T1 sequence (Q8TDU6 1-330): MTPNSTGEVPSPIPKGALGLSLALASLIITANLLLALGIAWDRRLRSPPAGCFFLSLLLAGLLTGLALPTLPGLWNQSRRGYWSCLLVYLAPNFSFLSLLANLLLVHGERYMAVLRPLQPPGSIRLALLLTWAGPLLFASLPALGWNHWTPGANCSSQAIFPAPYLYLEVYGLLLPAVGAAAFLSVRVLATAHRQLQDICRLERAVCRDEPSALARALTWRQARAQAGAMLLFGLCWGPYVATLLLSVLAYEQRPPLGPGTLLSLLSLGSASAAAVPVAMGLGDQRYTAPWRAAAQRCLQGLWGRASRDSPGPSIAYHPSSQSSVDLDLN
# Outline: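 HEK293 cells stably carrying hTGR5 and a CRE-luciferase reporter were exposed to serially diluted compounds (diluted in DMEM with 5% DMSO) for 6 h. Cells were then lysed in luciferase buffer, luminescence was read, and EC50 values were derived from dose-response curves.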
# [2] = biological target: T2, h-TGR5 (Homo sapiens, UniProt Q8TDU6); test: TGR5 cAMP Assay using Cisbio cAMP Dynamic2 htrf kit (hTGR5CRE-luc HEK 293 cells); format: cell-based; conditions: h-TGR5 cAMP EC50, Table 1; read-out: cAMP (EC50)
# T2 construct: expressed in transfected cells
# T2 sequence (Q8TDU6 1-330): T1 sequence (Q8TDU6 1-330)
# Outline: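 […], 4000 hTGR5CRE-luc HEK 293 cells per well, with 0.5 mM IBMX and d2-cAMP, were incubated 30 min at room temperature with compounds in 8-point half-log series, in quadruplicate.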
compound,measurement,setting,value
COc1cc(C(C)(C)c2cnc(COc3c(F)cc(C(=O)O)cc3Cl)n2-c2ccc(F)cc2)ccc1Cl [3-chloro-4-({[5-{1-[4-chloro-3-(methyloxy)phenyl]-1-methylethyl}-1-(4-fluorophenyl)-1H-imidazol-2-yl]methyl}oxy)-5-fluorobenzoic acid],EC50,[1],100 to 1000 nM
same,EC50,[2],100 to 1000 nM
"CC(C)(c1ccc(Cl)c(Cl)c1)c1cnc(SCc2c(F)cc(C(=O)NCS(=O)(=O)O)cc2F)n1-c1ccc(F)c(Cl)c1 [[({4-[({1-(3-chloro-4-fluorophenyl)-5-[1-(3,4-dichlorophenyl)-1-methylethyl]-1H-imidazol-2-yl}thio)methyl]-3,5-difluorophenyl}carbonyl)amino]methanesulfonic acid]",EC50,[1],< 100 nM
same,EC50,[2],< 100 nM
"CC(=O)NS(=O)(=O)c1ccc(CSc2ncc(C(C)(C)c3ccc(Cl)c(Cl)c3)n2-c2ccc(F)cc2)c(Cl)c1 [N-({3-chloro-4-[({5-[1-(3,4-dichlorophenyl)-1-methylethyl]-1-(4-fluorophenyl)-1H-imidazol-2-yl}thio)methyl]phenyl}sulfonyl)acetamide]",EC50,[1],100 to 1000 nM
same,EC50,[2],100 to 1000 nM
COc1cc(C(C)(C)c2cnc(SCc3ccc(S(=O)(=O)NC(=O)NC4CC4)cc3Cl)n2-c2ccc(F)cc2)ccc1Cl [3-chloro-4-({[5-{1-[4-chloro-3-(methyloxy)phenyl]-1-methylethyl}-1-(4-fluorophenyl)-1H-imidazol-2-yl]thio}methyl)-N-[(cyclopropylamino)carbonyl] benzenesulfonamide],EC50,[1],< 100 nM
same,EC50,[2],< 100 nM
"CC(C)(c1ccc(Cl)c(Cl)c1)c1cnc(SCc2ccc(C(=O)O)cc2Cl)n1-c1ccc(F)cc1 [3-chloro-4-[({5-[1-(3,4-dichlorophenyl)-1-methylethyl]-1-(4-fluorophenyl)-1H-imidazol-2-yl}thio)methyl]benzoic acid]",EC50,[1],100 to 1000 nM
same,EC50,[2],100 to 1000 nM
COc1cc(C(C)(C)c2cnc(SCc3c(F)cc(C(=O)N[C@@H](CCCNC(=N)N)C(=O)O)cc3Cl)n2-c2ccc(F)cc2)ccc1Cl [N-2-{[3-chloro-4-({[5-{1-[4-chloro-3-(methyloxy)phenyl]-1-methylethyl}-1-(4-fluorophenyl)-1H-imidazol-2-yl]thio}methyl)-5-fluorophenyl]carbonyl}-L-arginine],EC50,[1],< 100 nM
same,EC50,[2],< 100 nM
"CC(C)(c1ccc(Cl)c(Cl)c1)c1cnc(CNC2CCN(S(C)(=O)=O)CC2)n1-c1ccc(F)cc1 [N-({5-[1-(3,4-dichlorophenyl)-1-methylethyl]-1-(4-fluorophenyl)-1H-imidazol-2-yl}methyl)-1-(methylsulfonyl)piperidin-4-amine]",EC50,[1],1000 to 10000 nM
same,EC50,[2],1000 to 10000 nM
CC(C)(c1ccc(S(N)(=O)=O)c(Cl)c1)c1cnc(SCc2c(F)cc(C(=O)O)cc2Cl)n1-c1ccc(F)cc1 [4-({[5-{1-[4-(aminosulfonyl)-3-chlorophenyl]-1-methylethyl}-1-(4-fluorophenyl)-1H-imidazol-2-yl]thio}methyl)-3-chloro-5-fluorobenzoic acid],EC50,[1],< 100 nM
same,EC50,[2],< 100 nM
"CC(C)(c1ccc(Cl)c(Cl)c1)c1cnc(SCc2c(F)cc(C(=O)NCCS(=O)(=O)O)cc2F)n1-c1ccc(F)c(Cl)c1 [2-[({4-[({1-(3-chloro-4-fluorophenyl)-5-[1-(3,4-dichlorophenyl)-1-methylethyl]-1H-imidazol-2-yl}thio)methyl]-3,5-difluorophenyl}carbonyl)amino]ethanesulfonic acid]",EC50,[1],< 100 nM
same,EC50,[2],< 100 nM
"COc1cc(C(C)(C)c2cnc(SCc3c(F)cc(C(=O)NCCS(=O)(=O)O)cc3F)n2-c2ccc(F)cc2)ccc1Cl [2-({[4-({[5-{1-[4-chloro-3-(methyloxy)phenyl]-1-methylethyl}-1-(4-fluorophenyl)-1H-imidazol-2-yl]thio}methyl)-3,5-difluorophenyl]carbonyl}amino) ethanesulfonic acid]",EC50,[1],< 100 nM
same,EC50,[2],< 100 nM
COc1ccc(C(C)(C)c2cnc(SCc3ccc(S(=O)(=O)NC(=O)NC(C)C)cc3Cl)n2-c2ccc(F)cc2)cc1Cl [3-chloro-4-({[5-{1-[3-chloro-4-(methyloxy)phenyl]-1-methylethyl}-1-(4-fluorophenyl)-1H-imidazol-2-yl]thio}methyl)-N-{[(1-methylethyl)amino]carbonyl}benzenesulfonamide],EC50,[1],100 to 1000 nM
same,EC50,[2],100 to 1000 nM
"COc1cc(-n2c(C(C)(C)c3ccc(F)c(C#N)c3)cnc2SCc2c(F)cc(C(=O)O)cc2F)ccc1F [4-[({5-[1-(3-cyano-4-fluorophenyl)-1-methylethyl]-1-[4-fluoro-3-(methyloxy)phenyl]-1H-imidazol-2-yl}thio)methyl]-3,5-difluorobenzoic acid]",EC50,[1],< 100 nM
same,EC50,[2],< 100 nM
"COc1cc(-n2c(C(C)(C)c3ccc(F)c(F)c3)cnc2SCc2ccc(S(=O)(=O)NC(=O)NN3CCCC3)cc2Cl)ccc1F [3-chloro-4-[({5-[1-(3,4-difluorophenyl)-1-methylethyl]-1-[4-fluoro-3-(methyloxy)phenyl]-1H-imidazol-2-yl}thio)methyl]-N-[(pyrrolidin-1-ylamino)carbonyl]benzenesulfonamide]",EC50,[1],100 to 1000 nM
same,EC50,[2],100 to 1000 nM
"CC(C)(c1ccc(Cl)c(Cl)c1)c1cnc(CCc2c(F)cc(C(=O)N[C@@H](CCCNC(=N)N)C(=O)O)cc2Cl)n1-c1ccc(F)cc1 [N-2-{[3-chloro-4-(2-{5-[1-(3,4-dichlorophenyl)-1-methylethyl]-1-(4-fluorophenyl)-1H-imidazol-2-yl}ethyl)-5-fluorophenyl]carbonyl}-L-arginine]",EC50,[1],100 to 1000 nM
same,EC50,[2],100 to 1000 nM
COc1cc(-n2c(C(C)(C)c3ccc(S(N)(=O)=O)c(Cl)c3)cnc2SCc2ccc(C(=O)NCCC(=O)O)cc2F)ccc1F [N-[(4-{[(5-{1-[4-(aminosulfonyl)-3-chlorophenyl]-1-methylethyl}-1-[4-fluoro-3-(methyloxy)phenyl]-1H-imidazol-2-yl)thio]methyl}-3-fluorophenyl)carbonyl]-beta-alanine],EC50,[1],< 100 nM
same,EC50,[2],< 100 nM
"COc1c(Cl)cc(C(C)(C)c2cnc(SCc3c(F)cccc3Cl)n2-c2ccc(F)cc2)cc1Cl [2-{[(2-chloro-6-fluorophenyl)methyl]thio}-5-{1-[3,5-dichloro-4-(methyloxy)phenyl]-1-methylethyl}-1-(4-fluorophenyl)-1H-imidazole]",EC50,[1],< 100 nM
same,EC50,[2],< 100 nM
COc1cc(C(C)(C)c2cnc(SCc3ccc(S(=O)(=O)NC(=O)NN4CCCC4)cc3Cl)n2-c2cc(C)c(F)cn2)ccc1Cl [3-chloro-4-({[5-{1-[4-chloro-3-(methyloxy)phenyl]-1-methylethyl}-1-(5-fluoro-4-methylpyridin-2-yl)-1H-imidazol-2-yl]thio}methyl)-N-[(pyrrolidin-1-ylamino)carbonyl]benzenesulfonamide],EC50,[1],100 to 1000 nM
same,EC50,[2],1000 to 10000 nM
"COc1ccc(C(C)(C)c2cnc(CNc3c(F)cccc3Cl)n2-c2ccc(F)cc2)cc1OC [N-{[5-{1-[3,4-bis(methyloxy)phenyl]-1-methylethyl}-1-(4-fluorophenyl)-1H-imidazol-2-yl]methyl}-2-chloro-6-fluoroaniline]",EC50,[1],< 100 nM
same,EC50,[2],100 to 1000 nM
"CC(C)(c1ccc(Cl)c(Cl)c1)c1cnc(SCc2ccc(S(N)(=O)=O)cc2F)n1-c1ccc(F)cc1 [4-[({5-[1-(3,4-dichlorophenyl)-1-methylethyl]-1-(4-fluorophenyl)-1H-imidazol-2-yl}thio)methyl]-3-fluorobenzenesulfonamide]",EC50,[1],100 to 1000 nM
same,EC50,[2],100 to 1000 nM
N-2-({[3-chloro-4-({[5-{1-[4-chloro-3- (methyloxy)phenyl]-1-methylethyl}-1-(4- fluorophenyl)-1H-imidazol-2-yl]thio}methyl)- 5-fluorophenyl]amino}carbonyl)-L-arginine,EC50,[1],< 100 nM
same,EC50,[2],< 100 nM
"COc1cc(C(C)(C)c2cnc(SCc3c(F)cc(-c4n[nH]c(=O)o4)cc3Cl)n2-c2ccc(F)cc2)ccc1Cl [5-[3-chloro-4-({[5-{1-[4-chloro-3-(methyloxy)phenyl]-1-methylethyl}-1-(4-fluorophenyl)-1H-imidazol-2-yl]thio}methyl)-5-fluorophenyl]-1,3,4-oxadiazol-2(3H)-one]",EC50,[1],< 100 nM
same,EC50,[2],< 100 nM
COc1cc(C(C)(C)c2cnc(SCc3c(F)cc(C(=O)NC(CCCNC(=N)N)C(=O)O)cc3Cl)n2-c2ccc(F)cc2)ccc1F [N-2-{[3-chloro-5-fluoro-4-({[5-{1-[4-fluoro-3-(methyloxy)phenyl]-1-methylethyl}-1-(4-fluorophenyl)-1H-imidazol-2-yl]thio}methyl)phenyl]carbonyl}-D-arginine],EC50,[1],< 100 nM
same,EC50,[2],< 100 nM
COc1cc(C(C)(C)c2cnc(SCc3c(F)cccc3Cl)n2-c2cccnc2)ccc1Cl [3-(2-{[(2-chloro-6-fluorophenyl)methyl]thio}-5-{1-[4-chloro-3-(methyloxy)phenyl]-1-methylethyl}-1H-imidazol-1-yl)pyridine],EC50,[1],100 to 1000 nM
same,EC50,[2],100 to 1000 nM
"CC(C)(c1ccc(Cl)c(Cl)c1)c1cnc(SCC2CCN(c3nnn[nH]3)CC2)n1-c1ccc(F)c(Cl)c1 [4-[({1-(3-chloro-4-fluorophenyl)-5-[1-(3,4-dichlorophenyl)-1-methylethyl]-1H-imidazol-2-yl}thio)methyl]-1-(1H-tetrazol-5-yl)piperidine]",EC50,[1],< 100 nM
same,EC50,[2],100 to 1000 nM
